This passage reports IC50 and MIC results from ChEMBL document CHEMBL5338723, “Emerging Target-Directed Approaches for the Treatment and Diagnosis of Microbial Infections” (J Med Chem, 2023).

For orientation: IC50 means the point on the concentration scale where inhibition reaches its midpoint. As a reminder, the MIC is the lowest concentration that inhibits growth of the organism.

≈ marks a conversion by molar mass, not a printed value.

In assay [1] the test system is Escherichia coli. Description: Antibacterial activity against wild type Escherichia coli assessed as microbial growth inhibition. Type of assay: functional, organism-based.
Assay [2] has as its system Escherichia coli. Briefly: Antibacterial activity against enterobactin-deficient Escherichia coli harboring delta entA assessed as microbial growth inhibition. Type of assay: functional, organism-based.
Assay [3] has as its system Escherichia coli. Briefly: Antibacterial activity against enterobactin-deficient Escherichia coli harboring delta entB assessed as microbial growth inhibition. Type of assay: functional, organism-based.
Assay [4] has as its system Escherichia coli. Briefly: Antimicrobial activity against Escherichia coli ATCC BAA-2469 assessed as microbial growth inhibition. Type of assay: functional.
Assay [5] has as its system Escherichia coli. Description: Antimicrobial activity against Escherichia coli AR0349 assessed as microbial growth inhibition. It is filed as functional.
The test system of assay [6] is Escherichia coli. Briefly: Antimicrobial activity against Escherichia coli AR0150 assessed as microbial growth inhibition. Type of assay: functional.
Assay [7] has as its system Escherichia coli. Description: Antimicrobial activity against Escherichia coli IR45 assessed as microbial growth inhibition. It is filed as functional.
The subject of assay [8] is Escherichia coli. Briefly: Antimicrobial activity against Escherichia coli NCTC 13462 assessed as microbial growth inhibition. It is filed as functional.
The subject of assay [9] is Escherichia coli. Briefly: Antimicrobial activity against Escherichia coli ATCC 25922 assessed as microbial growth inhibition. It is filed as functional.
In assay [10] the test system is Escherichia coli. Briefly: Antimicrobial activity against Escherichia coli AR0114 assessed as microbial growth inhibition. It is filed as functional.
For assay [11], the system named is Escherichia coli. Description: Antimicrobial activity against Escherichia coli Swiss 15 assessed as microbial growth inhibition. Type of assay: functional.
Assay [12] concerns Escherichia coli. Briefly: Antimicrobial activity against Escherichia coli AR0137 assessed as microbial growth inhibition. Type of assay: functional.
Assay [13] has as its system Escherichia coli. Description: Antimicrobial activity against Escherichia coli B096a assessed as microbial growth inhibition. It is filed as functional.
Assay [14] relates to Escherichia coli. Briefly: Antimicrobial activity against Escherichia coli AR0494 assessed as microbial growth inhibition. It is filed as functional.
Assay [15] has as its system Escherichia coli. Briefly: Antimicrobial activity against Escherichia coli IR3 assessed as microbial growth inhibition. Type of assay: functional.
Assay [16] has as its system Acinetobacter baumannii. Briefly: Antimicrobial activity against Acinetobacter baumannii GS2AB1 assessed as microbial growth inhibition. It is filed as functional.
For assay [17], the system named is Escherichia coli. Briefly: Antimicrobial activity against Escherichia coli AR0346 assessed as microbial growth inhibition. It is filed as functional.
Assay [18] has as its system Escherichia coli. Description: Antimicrobial activity against Escherichia coli Swiss 2 (AF45) assessed as microbial growth inhibition. It is filed as functional.
A further assay has as its system Enterococcus faecium. Description: Antimicrobial activity against vancomycin-resistant Enterococcus faecium ATCC 51559 assessed as microbial growth inhibition. Type of assay: functional.
Assay [19] relates to Escherichia coli. Briefly: Antimicrobial activity against Escherichia coli H4/5 assessed as microbial growth inhibition. It is filed as functional.
The subject of assay [20] is Escherichia coli. Description: Antimicrobial activity against Escherichia coli AR0493 assessed as microbial growth inhibition. It is filed as functional.
For assay [21], the system named is Escherichia coli. Briefly: Antimicrobial activity against Escherichia coli NCTC 13441 assessed as microbial growth inhibition. It is filed as functional.
For assay [22], the system named is Acinetobacter baumannii. Description: Antimicrobial activity against Acinetobacter baumannii ACC00527 assessed as microbial growth inhibition. Type of assay: functional.
Assay [23] relates to Escherichia coli. Briefly: Antimicrobial activity against Escherichia coli AR0350 assessed as microbial growth inhibition. It is filed as functional.
Assay [24] has as its system Escherichia coli. Briefly: Antimicrobial activity against Escherichia coli AR089 assessed as microbial growth inhibition. Type of assay: functional.
For assay [25], the system named is Escherichia coli. Description: Antimicrobial activity against Escherichia coli Swiss 13 assessed as microbial growth inhibition. It is filed as functional.
The test system of assay [26] is Escherichia coli. Briefly: Antimicrobial activity against Escherichia coli ATCC BAA-2340 assessed as microbial growth inhibition. It is filed as functional.
In assay [27] the test system is Escherichia coli. Briefly: Antimicrobial activity against Escherichia coli ExPEC H5 assessed as microbial growth inhibition. Type of assay: functional.
Assay [28] deals with Escherichia coli. Briefly: Antimicrobial activity against Escherichia coli JW0451-2 assessed as microbial growth inhibition. It is filed as functional.
Assay [29] relates to Escherichia coli. Briefly: Antimicrobial activity against Escherichia coli BW25113 assessed as microbial growth inhibition. It is filed as functional.
The subject of a further assay is Enterococcus faecalis. Description: Antimicrobial activity against vancomycin-resistant Enterococcus faecalis ATCC 51575 assessed as microbial growth inhibition. It is filed as functional.
Assay [30] relates to Escherichia coli. Description: Antimicrobial activity against Escherichia coli AR055 assessed as microbial growth inhibition. Type of assay: functional.
Assay [31] has as its system Escherichia coli. Description: Antimicrobial activity against Escherichia coli UTI89 assessed as microbial growth inhibition. Type of assay: functional.
Assay [32] deals with Acinetobacter baumannii. Description: Antimicrobial activity against Acinetobacter baumannii Naval-81 assessed as microbial growth inhibition. It is filed as functional.
Assay [33] concerns Escherichia coli. Briefly: Antimicrobial activity against Escherichia coli NCTC 13846 assessed as microbial growth inhibition. Type of assay: functional.
Assay [34] deals with Staphylococcus aureus. Briefly: Antimicrobial activity against methicillin-resistant Staphylococcus aureus ATCC 33591 assessed as microbial growth inhibition. Type of assay: functional.
Assay [35] deals with Escherichia coli. Description: Antimicrobial activity against Escherichia coli IR57 assessed as microbial growth inhibition. Type of assay: functional.
In assay [36] the test system is Staphylococcus aureus. Description: Antimicrobial activity against vancomycin intermediate Staphylococcus aureus assessed as microbial growth inhibition. It is filed as functional.
Assay [37] relates to Escherichia coli. Description: Antimicrobial activity against Escherichia coli B808 assessed as microbial growth inhibition. Type of assay: functional.
For assay [38], the system named is Escherichia coli. Description: Antibacterial activity against Escherichia coli assessed as microbial growth inhibition. Type of assay: functional.
Assay [39] relates to Acinetobacter genomosp. 13TU. Description: Antimicrobial activity against Acinetobacter nosocomialis assessed as microbial growth inhibition. It is filed as functional.
For assay [40], the system named is Acinetobacter baumannii. Description: Antimicrobial activity against Acinetobacter baumannii assessed as microbial growth inhibition. Type of assay: functional.

Consider `CC(=O)Oc1cccc(C(=O)NCCNC(=O)CN2CCN(CC(=O)NCCCC(=O)NC(C(=O)N[C@@H]3C(=O)N4[C@@H]3SC(C)(C)[C@@H]4C(=O)O)c3ccccc3)CCN(CC(=O)NCCNC(=O)c3cccc(OC(C)=O)c3OC(C)=O)CCN(CC(=O)NCCNC(=O)c3cccc(OC(C)=O)c3OC(C)=O)CC2)c1OC(C)=O` (some centres not stated), for which the IC50 with Escherichia coli [1] came to 30200 nM; with Escherichia coli [2], 2100 nM; in the assay on Escherichia coli [3], 2100 nM.
Take `CN[C@H](CC(C)C)C(=O)N[C@H]1C(=O)N[C@@H](CC(N)=O)C(=O)N[C@H]2C(=O)N[C@H]3C(=O)N[C@H](C(=O)N[C@H](C(=O)O)c4cc(O)cc(O)c4-c4cc3ccc4O)[C@H](O)c3ccc(c(Cl)c3)Oc3cc2cc(c3O[C@@H]2O[C@H](CO)[C@@H](O)[C@H](O)[C@H]2O[C@H]2C[C@](C)(N)[C@H](O)[C@H](C)O2)Oc2ccc(cc2Cl)[C@H]1O` [VANCOMYCIN]: the MIC with Escherichia coli [4], in the assay on Escherichia coli [5], in the assay on Escherichia coli [6], in the assay with Escherichia coli [7], in the assay with Escherichia coli [8] and in the assay with Escherichia coli [9] was 64 µg/mL (≈ 44.2 µM) in each case. The MIC in the assay on Escherichia coli [10], with Escherichia coli [11], with Escherichia coli [12], in the assay with Escherichia coli [13], in the assay on Escherichia coli [14] and in the assay on Escherichia coli [15] was 64 µg/mL (≈ 44.2 µM) each time. The MIC with Acinetobacter baumannii [16] was 64 µg/mL (≈ 44.2 µM); with Escherichia coli [17], 64 µg/mL (≈ 44.2 µM); in the assay on Escherichia coli [18], 64 µg/mL (≈ 44.2 µM); with Enterococcus faecium, 750 µM (≈ 1090 µg/mL); in the assay with Escherichia coli [19], 64 µg/mL (≈ 44.2 µM); with Escherichia coli [20] it was 64 µg/mL (≈ 44.2 µM). In addition, the MIC with Escherichia coli [21], in the assay on Acinetobacter baumannii [22], in the assay on Escherichia coli [23], in the assay on Escherichia coli [24], in the assay with Escherichia coli [25] and with Escherichia coli [26] was 64 µg/mL (≈ 44.2 µM) each time. Also, the MIC in the assay on Escherichia coli [27] amounted to 64 µg/mL (≈ 44.2 µM); in the assay with Escherichia coli [28], 64 µg/mL (≈ 44.2 µM); in the assay with Escherichia coli [29], 64 µg/mL (≈ 44.2 µM); in the assay on Enterococcus faecalis, 250 µM (≈ 362 µg/mL); in the assay with Escherichia coli [30] it was 64 µg/mL (≈ 44.2 µM); in the assay on Escherichia coli [31] it was 64 µg/mL (≈ 44.2 µM). Besides, the minimum inhibitory concentration (MIC) worked out at 64 µg/mL (≈ 44.2 µM) with Acinetobacter baumannii [32]; 64 µg/mL (≈ 44.2 µM) with Escherichia coli [33]; 0.63 µM (≈ 0.913 µg/mL) with Staphylococcus aureus [34]; 64 µg/mL (≈ 44.2 µM) in the assay on Escherichia coli [35]; 13 µM (≈ 18.8 µg/mL) in the assay with Staphylococcus aureus [36]; 64 µg/mL (≈ 44.2 µM) in the assay with Escherichia coli [37].
With `CCCCCCCCCC(=O)N[C@@H](Cc1c[nH]c2ccccc12)C(=O)N[C@H](CC(N)=O)C(=O)N[C@@H](CC(=O)O)C(=O)N[C@@H]1C(=O)NCC(=O)N[C@@H](CCCNC(=O)[C@H](CCSC)NC(=O)[C@H](Cc2ccc(O)cc2)NC(=O)[C@H](CCCCN)NC(=O)[C@@H]2CCCN2C(=O)[C@H](CO)NC(=O)[C@H](Cc2c[nH]c3ccccc23)NC(=O)CN(CCCCNC(=O)c2cccc(O)c2O)C(=O)c2cccc(O)c2O)C(=O)N[C@@H](CC(=O)O)C(=O)N[C@H](C)C(=O)N[C@@H](CC(=O)O)C(=O)NCC(=O)N[C@H](CO)C(=O)N[C@@H](C(C)CC(=O)O)C(=O)N[C@@H](CC(=O)c2ccccc2N)C(=O)O[C@@H]1C` (some centres not stated), the minimum inhibitory concentration (MIC) (in the assay on Escherichia coli [38]; in assay [39]; with Acinetobacter baumannii [40]) was 1 µM (≈ 2.81 µg/mL) in each case.
